Laboratory results from patent publication US9107914B2, “Beta-carbolines for use in the treatment of hearing loss and vertigo” (AudioCure Pharma GmbH, priority 2009, dated 2015).
“Also recorded” adds a separate entry of the source.

Legend:
[1] = test system: BDNF (brain-derived neurotrophic factor) in human SH-SY5Y cells; experiment: Relative gene expression of BDNF (FIG. 4A); assay type: cell-based; conditions: after two days
Protocol: (§1) Next, it was investigated, whether the substances could induce the formation of nerve growth factors in human SH-SY5Y neuroblastoma cell. After 2 and 14 days the cells were harvested and the expression of the target gene and the house keeping gene was determined via reverse transcriptase-PCR.

[2] = parameters: species or system guinea pigs; conditions: guinea pig, in vivo
Protocol: Thus, infusion took place into the middle ear and, therefore, outside the cochlea of the inner ear, whereby the tympanic membrane was not damaged. After three hours, 5 μL of perilymph were obtained from the apex, the tip of the cochlea, i.e. the part of the cochlea distanced most from the membrane of the round window, by a previously implanted cannula. The sample was diluted and was separated immediately by high-pressure liquid chromatography (HPLC) without further processing; and the natural fluorescence of β-carboline was determined by a fluorescence detector. The experiment was repeated with a second guinea pig and identical conditions but the sample was obtained after a 10-hour infusion. […] In a second series, 20 μg of 9-Me-BC were applied into the perilymph straight through the membrane of the round window, i.e. intra-cochlear. After three hours and after 20 hours in case of another animal, perilymph was obtained and analysed as described above. Results are depicted in FIG. 6 together with a calibration series. […] A single maximum, which represents 9-Me-BC, can be seen after 7 minutes in the upper chromatogram of FIG. 6. Clearly, no further maximum is to be seen; thus, 9-Me-BC is not degraded.

[3] = test system: organ of Corti of the cochlea of rats; experiment: Real-time RT-PCR of organ cultures of the organ of Corti (Example 14); assay type: cell-based; conditions: 90 μM, 48 hours, rat organ of Corti culture, vs solvent (100%)
Protocol: Initially, organ cultures of the organ of Corti of the cochlea of rats were prepared, which were brought into contact with 9-methyl-β-carboline in a next step. Expression of different neurotrophins was measured as a marker of the effects of 9-methyl-β-carboline on the organs or Corti. For this, RNA was isolated from Corti's tissue, transcribed into cDNA, and the concentrations of the cDNAs of the neurotrophins were determined with help of the real-time RT-PCR method.
Organs of Corti of the cochlea of 40 rats were prepared in several sessions on day 4 post partum. […] Amount and quality of the RNA were determined photometrical. […] Real-time reverse transcriptase polymerase chain reaction (real-time RT-PCR) was performed with the LightCycler System of Roche Applied Science, Mannheim, using the fluorescence resonance energy transfer (FRET) method. […] The gen for hydroxymethylbilane synthase (HMBS) was selected as a so-called housekeeping gene for relative quantification. […] The measured fluorescence of each cycle was analysed by the LightCycler Software. […] Quantification was conducted by the 2^−ΔΔC(t) method of Livak and Schmittgen (Livak K J and Schmittgen T D. Analysis of relative gene expression data using real-time quantitative PCR and the 2(-Delta Delta C(T)) Methods 2001; 25:402-8).

[4] = test system: NPY (Neuropeptide Y) in human SH-SY5Y cells; experiment: Relative gene expression of NPY (FIG. 4E); assay type: cell-based; conditions: after 14 days of exposure
Protocol: as §1

[5] = test system: transcription factor CREB in SH-SY5Y cells; experiment: Dual luciferase method for intracellular cascades (FIG. 5); assay type: cell-based, human; conditions: dose-dependent activating effect, 48 h incubation, three independent experiments
Source text: The effects of β-carbolines on several intracellular cascades were investigated. Of them it is known, that at their respective ends, several transcription factors are formed in the cell nucleus, that in turn activate the transcription of a group of further genes. The dual luciferase method was used. One luciferase served as transfection control, whereas the second is coupled to the appropriate specific binding sequence of the DNA.

[6] = test system: human SH-SY5Y neuroblastoma cells; experiment: Differentiation model / neurite length in human neuroblastoma cells; assay type: cell-based; conditions: 14 days; for neurite length: vs control group, P<0.001; on differentiation / neurite length in comparison to 9-methyl-β-carboline: key: +: marginally better than 9-methyl-β-carboline; ±: equal to 9-methyl-β-carboline; −: marginally worse than 9-methyl-β-carboline
Source text: Human neuroblastoma cells were utilised for this model. These are permanent cells, which are present as an indifferent type in culture. They can be activated to differentiate, i.e. transformation into neuronal cells, by addition of specific substances such as retinoic acid, […] (BDNF) or activator of the enzyme, protein kinase C to the culture medium. We used this cell system to analyse whether beta-carbolines can transform the indifferent cells into the neuronal type. Criteria were: less proliferation (less cells per field of view); smaller cell bodies (transformation from the indifferent type to the neuronal type); cytodendrites (neuritis), which provide connections to neighbouring cells or clusters of neighbouring cells.
Human SH-SY5Y neuroblastoma cells were incubated in culture for 14 days with solvent (Ko) or test substance. A shift of the graph to the right side for a test substance, pointed to an increase of neurite length, when compared to the graph for the control substance. Statistical differences between the treated groups were calculated with the Tukey's Multiple Comparison-Test.
Shown are the cumulative frequency distributions of neurite lengths, determined in at least 20 randomly selected visual fields (each 640.000 μm^2) in three independent experiments. A steep rise pointed to a predominance of short neuritis, wherein for example in control cells, a less steep rise signified a greater number of longer neurites. The horizontal maximum indicated the maximal neurite length of the respective treatment group. […] The effects are dose- and substance-dependent: 1-methyl-β-carboline <6-methoxy-9-methyl-β-carboline <9-methyl-β-carboline <9-fluorethyl-β-carboline).
The effects of the other inventive β-carbolines (compounds A-L and VI-XX) on neurite length were determined, as described above, in human SH-SY5Y neuroblastoma cells after 14 days.

[7] = test system: cerebellin-1 precursor protein (CBLN) in human SH-SY5Y cells; experiment: Relative gene expression of CBLN (FIG. 4B); assay type: cell-based
Protocol: as §1

inner ear of guinea pigs = experiment: Prophylaxis of hearing damages in an animal model, gentamicin and etacrynic acid (Example 30); assay type: in vivo; conditions: infusion to the round window recess, gentamicin and etacrynic acid i.v.
Protocol: A solution containing β-carboline was infused continuously into the recess in front of the membrane of the round window of guinea pigs by a osmotic mini-pump for three days. The following β-carbolines were tested individually in this experiment: 9-methyl-β-carboline, compounds XI, XII, XVIII, XIX as well as C to L.
Then, a standard dose of gentamicin and etacrynic acid was injected intravenously into guinea pigs. Gentamicin and etacrynic acid damage the inner ear. Typically, they are used as toxins to induce deafness in such studies. The infusion was continued for further two days. Then, the electrophysiological activity of the nerve cells of the brain stem, which transmit the impulses of the inner ear, was deduced after acoustic irradiation of the ear with […]. The non-β-carboline-treated ear served as intraindividual control (Prieskorn D M, Miller J M. Technical report: chronic and acute intracochlear infusion in rodents. Hear Res, 2000; 140(1-2): 212-215). Moreover, animals were infused with 9-Me-BC only but not with gentamicin as a further control.
The measured electrophysiological activity of the nerve cells of the acoustic nerve (hearing threshold) served as a measure of the degree of therapeutic effect of the used β-carbolines on the inner ear. As can be learned from Table 3, the used β-carbolines show the increase in electrophysiological activity of the nerve cells of the acoustic nerve. It can be concluded from this that β-carbolines are useful for the treatment of hearing damages, vertigo, and vestibular disorders.

For `Cn1c2ccccc2c2ccncc21` [9-methyl-β-carboline], the “concentration(s) that stimulated BDNF transcription” value [1] was 110 µM, the “degradation in perilymph (further chromatographic maxima)” value [2] was “not degraded” and the “penetration of the membrane of the round window into the perilymph” value [2] was “penetrates the membrane of the round window”. The “generation of neurotrophins Armetl 1, BDNF, Cbln 1, NGF and NPY (transcription)” value [3] was “activated”, the “dopaminergic proteins (dopamine receptor subtype 1, tyrosine hydroxylase) transcription” value ([3]; listed as 9-Me-BC) was “activates specifically characteristic proteins of dopaminergic nerve cells; also recorded: increasingly activated” and the “NPY gene expression, concentration dependence” value [4] was “lower concentrations were more effective than the higher concentrations”. For the same compound, the “formation of the transcription factor CREB relative to the level in control cells” value [5] was “up to ten times” and the neurite length ([6]; 70, 90 or 110 μM) was “increase in neurite length”.
For `FCCn1c2ccccc2c2ccncc21` [fluorethyl-BC (XIX), 9-(2-fluoroethyl)-9H-β-carboline], the CBLN gene expression ([7]; after 14 days of exposure) was “roughly the same stimulation at all investigated concentrations”, the CBLN gene expression ([7]; after two days exposure) was “increased” and the “effect on the inner ear (electrophysiological activity, hearing threshold) in comparison to 9-methyl-β-carboline” value (inner ear of guinea pigs) was “+”. For the same compound, the “NPY gene expression, concentration dependence” value [4] was “lower concentrations were more effective than the higher concentrations”, the “formation of the transcription factor CREB relative to the level in control cells” value [5] was “up to ten times” and the neurite length ([6]; 30, 50 or 70 μM) was “increase in neurite length”. For the same compound, the “differentiation / neurite length in comparison to 9-methyl-β-carboline” value ([6]; SH-SY5Y cells) was “+”.
